Patent publication US20240209456A1, “METHODS AND COMPOSITIONS RELATED TO CELL-CYCLE RNA's” (BETH ISRAEL DEACONESS MEDICAL CENTER, priority 2021, published 2024)
“Also recorded” adds a separate entry of the source.

Assays:
TIP60 = TIP60 (Homo sapiens, UniProt Q92993); assay: nascent ChIP-qPCR (nasChIP) with TIP60 antibody; type: cell-based; design: endogenous in cells; host or cells: HL-60; conditions: for restoration of TIP60 at c-MYC locus after DRB reversal: HL-60, 2 hrs after DRB wash-out, MG149 200 μM, TH1834 500 μM; for restoration of TIP60 enrichment at PU1 locus after DRB reversal: HL-60, MG149 and TH1834 treatments
Description: (§1) To confirm the results of the ChIP-Seq, and to track the deposition of the H2A.Z, acH2A.Z nascent chromatin immunoprecipitation (nasChIP-PCR) was performed with the antibodies to H2A.Z, acH2A.Z and TIP60, as nasChIP-PCR can be used to track histone deposition. Cells were synchronized with a double thymidine block, released into S Phase and treated with DRB for 2 hrs. The medium was supplemented with the EdU DNA analog to enable collection of nascent chromatin DNA (FIG. 4A). […] The results of these experiments provide an important link between the suppressed c-MYC SPEARs expression and the reduced levels of the replacement histone H2A.Z, as an even greater degree of the loss of the acetylated acH2A.Z forms at the TSS of the c-MYC locus. Similar results were obtained for another gene locus, PU1 (FIG. 4F, right panels).
Cells were synchronized with a double thymidine block and released into S Phase with DMSO/DRB added. After 2 hours (during which H2A.Z levels remained unaffected, but SPEARs and mRNA levels drop, see FIG. 10A), cells were washed and then incubated for a further 2 hours with or without the TIP60 inhibitors. This interval is sufficient for the levels of both the c-MYC mRNAs and its SPEARs to be restored when the TIP60 inhibitors are absent (results shown in FIG. 11B). The medium was supplemented with the EU RNA and EdU DNA analogs to enable collection of nascent RNAs and newly formed chromatin that had escaped the drug-induced inhibition of transcription or acetylation. After 2 hours with the TIP60 inhibitors present (MG-149 at 200 μM and TH1834 at 500 μM), during which the levels of acH2A.Z dropped (see FIG. 11A), cells were crosslinked and subjected to nasChIP and nascent RNA expression analyses (nas-qRT-PCR) (FIG. 6B). Collected RNAs were biotinylated by click chemistry, isolated on streptavidin beads and analyzed by nas-qRT-PCR (see “Methods” below for details; FIG. 8A; bottom panel).
To further confirm that SPEARs realize their c-MYC regulatory function directly through the TIP60/acH2A.Z pathway, the differences in chromatin occupancy of H2A.Z, acH2A.Z and TIP60 were assessed after inhibition of transcription (“DRB”), reversal of inhibition (“DRB REV”) and reversal of inhibition in the presence of the two TIP60 inhibitors, using nasChIP-qPCR. […] By analyzing the nascent RNAs and chromatin, only the immediate changes in c-MYC expression and TIP60, acH2A.Z and H2A.Z occupancy were examined within the locus as imposed by the inhibition of transcription and/or acetylation. […] When the two HAT inhibitors are present, the reversal of transcriptional inhibition can only restore the enrichment levels of the unmodified H2A.Z and TIP60 (FIG. 6D; left and right panels), but not the levels of acH2A.Z (middle panel). […] Furthermore, no enrichments of H2A.Z, acH2A.Z or TIP60 was detected within the Gene Desert locus (FIG. 11C). […] Similar results were obtained for the PU.1 locus (FIG. 11D and FIG. 11E). These findings using nasChIP are in line with the general trend obtained globally by ChIP-Seq. (FIG. 4C).
Nascent RNA/DNA capture was performed using Click-iT Nascent RNA Capture Kit (ThermoFisher) according to the manufacturer's instructions with minor modifications. Briefly, 1. Labeling the cells with EU/EdU. 200 mM EU or 30 mM EdU stock solutions were added to the cells, to a final concentration 0.5 mM or 30 μM, respectively. 2. Incubation. The cells were incubated for 1 or 2 hours. 3. RNA/DNA isolation. The cells were harvested and the RNA/DNA were isolated and dissolved in 14 μL of H2O. 4. Biotinylation of RNA/DNA by Click reaction. Click-iT reaction cocktail (50 μL per reaction) was prepared accordingly to manufacturer's instructions: a mixture containing 1× Click-iT EU buffer; 2 mM CuSO4; 1 mM Biotin azide; 13.25 μL of the isolated RNA; 10 mM Click-iT reaction buffer additive 1; 12 mM Click-iT reaction buffer additive 2 was prepared. After adding each component, the reaction cocktail was gently mixed by vortexing. […]

H2A.Z = assay: nascent ChIP-qPCR (nasChIP) with H2A.Z antibody; type: cell-based, human; conditions: for restoration of H2A.Z distribution at c-MYC locus after DRB reversal: HL-60, 2 hrs after DRB wash-out, MG149 200 μM, TH1834 500 μM
Description: as §1
Cells were synchronized with a double thymidine block and released into S Phase with DMSO/DRB added. After 2 hours (during which H2A.Z levels remained unaffected, but SPEARs and mRNA levels drop, see FIG. 10A), cells were washed and then incubated for a further 2 hours with or without the TIP60 inhibitors. This interval is sufficient for the levels of both the c-MYC mRNAs and its SPEARs to be restored when the TIP60 inhibitors are absent (results shown in FIG. 11B). […] Collected RNAs were biotinylated by click chemistry, isolated on streptavidin beads and analyzed by nas-qRT-PCR (see “Methods” below for details; FIG. 8A; bottom panel).
To further confirm that SPEARs realize their c-MYC regulatory function directly through the TIP60/acH2A.Z pathway, the differences in chromatin occupancy of H2A.Z, acH2A.Z and TIP60 were assessed after inhibition of transcription (“DRB”), reversal of inhibition (“DRB REV”) and reversal of inhibition in the presence of the two TIP60 inhibitors, using nasChIP-qPCR. […] Furthermore, no enrichments of H2A.Z, acH2A.Z or TIP60 was detected within the Gene Desert locus (FIG. 11C). […]

acH2A.Z = assay: Western blot of total proteins, acH2A.Z normalized by H2A.Z; type: cell-based, human; conditions: HL-60, 2 hours; 200 μM MG149, 500 μM TH1834
Description: Whole-cell lysates from approximately 0.2×10^6 cells per each sample were separated on 12% SDS-PAGE gels and transferred to a nitrocellulose membrane. Immunoblots were stained overnight at 4° C. with the following primary antibodies: H2A.Z (1:2,000; Abcam ab4174), H2A.Z acetyl (K4+K7+K11) (1:2,000; Abcam ab18262) or TIP60 (1:1000; generous gift from Bruno Amati). All secondary horseradish peroxidase (HRP)-conjugated antibodies were diluted 1:5,000 and incubated for 1 hr at room temperature with TBST/5% BSA. Immuno-reactive proteins were detected using the Pierce® ECL system (Thermo Scientific #32106).

[1] = HL-60 released into S Phase, DRB 2 hrs

TIP60, sequence (Q92993 whole entry): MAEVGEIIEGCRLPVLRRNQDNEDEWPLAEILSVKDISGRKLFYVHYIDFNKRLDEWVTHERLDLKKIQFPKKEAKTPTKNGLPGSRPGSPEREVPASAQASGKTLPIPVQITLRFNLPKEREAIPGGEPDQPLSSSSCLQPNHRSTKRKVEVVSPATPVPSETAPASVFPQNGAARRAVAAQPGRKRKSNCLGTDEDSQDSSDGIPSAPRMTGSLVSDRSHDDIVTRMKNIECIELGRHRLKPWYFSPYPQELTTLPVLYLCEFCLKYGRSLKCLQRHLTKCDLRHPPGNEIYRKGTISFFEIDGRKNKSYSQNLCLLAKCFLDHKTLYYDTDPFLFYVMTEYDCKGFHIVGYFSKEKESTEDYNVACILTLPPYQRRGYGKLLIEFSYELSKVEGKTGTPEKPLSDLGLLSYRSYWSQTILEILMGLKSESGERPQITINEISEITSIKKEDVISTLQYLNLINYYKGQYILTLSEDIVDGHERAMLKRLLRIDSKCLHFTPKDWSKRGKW

`CCCCCCCc1ccc(CCc2cccc(O)c2C(=O)O)cc1` [MG149] was tested, and the “restoration of TIP60 at c-MYC locus after DRB reversal” value (TIP60) was “only slightly affecting”, the “restoration of TIP60 enrichment at PU1 locus after DRB reversal” value (TIP60) was “without affecting” and the “restoration of H2A.Z distribution at c-MYC locus after DRB reversal” value (H2A.Z) was “only slightly affecting”. The “level of acH2A.Z normalized by H2A.Z” value (acH2A.Z) was “Reduction”.
With `OC[C@H]1O[C@@H](n2cnc3cc(Cl)c(Cl)cc32)[C@H](O)[C@@H]1O` [DRB, 5,6-Dichlorobenzimidazole 1-β-D-ribofuranoside] the “TIP60 enrichment at PU1 locus” value (TIP60; HL-60, DRB treatment) was “loss”, the “TIP60 enrichment at c-MYC locus” value (TIP60; [1]) was “diminished enrichment and loss” and the “H2A.Z enrichment at c-MYC locus” value (H2A.Z; [1]) was “diminished enrichment; also recorded: partial loss”.
`O=C(O)Cn1nnc(-c2ccc(CN(CCCCOc3ccc(CN4CCCC4)cc3)CCc3ccccc3)cc2)n1` [TH1834] was tested, and the “restoration of TIP60 at c-MYC locus after DRB reversal” value (TIP60) was “only slightly affecting”, the “restoration of TIP60 enrichment at PU1 locus after DRB reversal” value (TIP60) was “without affecting” and the “restoration of H2A.Z distribution at c-MYC locus after DRB reversal” value (H2A.Z) was “only slightly affecting”. For the same molecule, the “level of acH2A.Z normalized by H2A.Z” value (acH2A.Z) was “Reduction”.
